Assay results taken from ChEMBL document CHEMBL1144214, “Structure-activity relationships of compounds targeting mycobacterium tuberculosis 1-deoxy-D-xylulose 5-phosphate synthase” (Bioorg Med Chem Lett, 2008).
Values after ≈ are worked out from the molar mass of the structure shown.

Legend:
[1] = target: T1, 1-deoxy-D-xylulose-5-phosphate synthase (Mycobacterium tuberculosis, UniProt P9WNS3); assay: Inhibition of Mycobacterium tuberculosis cloned 1-deoxy-D-xylulose-5-phosphate synthase expressed in Escherichia coli
T1 sequence (P9WNS3 whole entry): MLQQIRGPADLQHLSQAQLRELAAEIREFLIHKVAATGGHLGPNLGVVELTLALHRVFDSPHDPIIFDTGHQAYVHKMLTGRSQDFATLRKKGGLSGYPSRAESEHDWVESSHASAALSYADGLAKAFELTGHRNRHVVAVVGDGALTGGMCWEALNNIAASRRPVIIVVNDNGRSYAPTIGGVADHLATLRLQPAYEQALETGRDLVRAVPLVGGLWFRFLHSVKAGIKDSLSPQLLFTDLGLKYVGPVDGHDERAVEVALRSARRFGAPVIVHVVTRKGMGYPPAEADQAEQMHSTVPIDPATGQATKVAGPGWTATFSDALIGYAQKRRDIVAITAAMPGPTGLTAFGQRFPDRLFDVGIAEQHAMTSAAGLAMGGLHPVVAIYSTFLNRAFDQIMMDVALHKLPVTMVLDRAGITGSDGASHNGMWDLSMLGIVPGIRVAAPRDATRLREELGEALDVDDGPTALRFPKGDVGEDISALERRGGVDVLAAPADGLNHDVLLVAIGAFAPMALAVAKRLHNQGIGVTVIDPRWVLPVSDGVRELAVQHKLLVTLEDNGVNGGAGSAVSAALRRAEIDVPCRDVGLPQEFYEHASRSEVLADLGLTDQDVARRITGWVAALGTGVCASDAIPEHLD

Transketolase = target: T2, Transketolase (Homo sapiens, UniProt P29401); assay: Inhibition of human recombinant transketolase expressed in Escherichia coli
T2 sequence (P29401 whole entry): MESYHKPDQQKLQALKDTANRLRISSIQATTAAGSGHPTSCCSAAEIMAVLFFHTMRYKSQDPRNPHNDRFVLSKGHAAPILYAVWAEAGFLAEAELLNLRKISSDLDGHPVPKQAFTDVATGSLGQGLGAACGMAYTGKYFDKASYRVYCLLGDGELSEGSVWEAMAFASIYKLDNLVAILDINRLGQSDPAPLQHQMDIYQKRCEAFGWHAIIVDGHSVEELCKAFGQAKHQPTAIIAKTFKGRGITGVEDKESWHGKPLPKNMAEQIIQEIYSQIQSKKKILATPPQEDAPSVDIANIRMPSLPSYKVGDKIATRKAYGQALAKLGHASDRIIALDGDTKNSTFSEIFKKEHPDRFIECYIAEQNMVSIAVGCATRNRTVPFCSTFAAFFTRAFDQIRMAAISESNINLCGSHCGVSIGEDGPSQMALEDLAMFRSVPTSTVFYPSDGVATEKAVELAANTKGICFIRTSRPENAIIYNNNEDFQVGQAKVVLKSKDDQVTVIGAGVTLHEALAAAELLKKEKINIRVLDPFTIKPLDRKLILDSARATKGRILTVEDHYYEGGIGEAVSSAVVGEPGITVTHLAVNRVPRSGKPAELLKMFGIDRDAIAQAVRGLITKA

[2] = system: Mycobacterium tuberculosis; assay: Antituberculosis activity against Mycobacterium tuberculosis; format: functional
Vero = assay: Cytotoxicity against african green monkey Vero cells; format: cell-based; details: Chlorocebus sabaeus
[3] = Selectivity index, ratio of IC50 for african green monkey Vero cells to MIC for Mycobacterium tuberculosis; format: functional

O=c1cc(Cc2ccccc2)[nH]c2c(-c3ccc(Cl)cc3)cnn12
IC50 [1]: 114 µM
IC50 (Transketolase): 3.9 µM

Cc1[nH]c2c(-c3ccc(Cl)cc3)c(C(F)(F)F)nn2c(=O)c1Cc1ccccc1
IC50 [1]: > 200 µM

COc1ccccc1-c1cc(=O)n2nc(C)c(-c3ccc(Br)cc3)c2[nH]1
IC50 [1]: 53.5 µM

O=c1cc(CCl)[nH]c2c(-c3ccccc3)cnn12
IC50 [1]: > 200 µM

O=c1cc(Cc2ccccc2)[nH]c2c(-c3ccc(Cl)cc3)c(C(F)(F)F)nn12
IC50 [1]: 14 µM

COCc1cc(=O)n2nc(C)c(-c3ccc(Cl)cc3)c2[nH]1
IC50 [1]: > 200 µM

Oc1cc(-c2ccccc2)nc2c(-c3ccccc3)c(C(F)(F)F)nn12
IC50 [1]: 23 µM

CCOC(=O)Cc1c(C)nc2c(-c3ccccc3)cnn2c1O
IC50 [1]: > 200 µM

Cc1nn2c(=O)cc(CSc3ccc(Cl)cc3)[nH]c2c1-c1ccc(Cl)cc1
IC50 [1]: 41.4 µM

COc1ccc(-c2cc(=O)n3nc(C)c(-c4ccc(F)cc4)c3[nH]2)cc1
IC50 [1]: 10.6 µM
MIC [2]: 7.7 µM (≈ 2.69 µg/mL)
IC50 (Vero): 35.6 µM

CCc1nn2c(=O)cc(-c3ccc(OC)cc3)[nH]c2c1-c1ccc(Cl)cc1
IC50 [1]: 19.7 µM

O=c1cc(Cc2ccccc2)[nH]c2c(-c3ccccc3)c(C(F)(F)F)nn12
IC50 [1]: 71.1 µM

Cc1nn2c(=O)cc(CSc3ccc(Cl)cc3)[nH]c2c1-c1ccccc1
IC50 [1]: 63.7 µM

FC(F)(F)c1cc(-c2ccc(Cl)cc2)nc2c(-c3ccc(Cl)cc3)cnn12
IC50 [1]: > 200 µM

COC(=O)Cc1cc(=O)n2nc(C(F)(F)F)c(-c3ccc(Br)cc3)c2[nH]1
IC50 [1]: 73 µM

Cc1nn2c(=O)cc(CSc3nnnn3-c3ccccc3)[nH]c2c1-c1ccc(Cl)cc1
IC50 [1]: 55.1 µM

Cc1nn2c(=O)cc(-c3ccccc3)[nH]c2c1-c1ccc(Cl)cc1
IC50 [1]: 34.2 µM
MIC [2]: 14.2 µM (≈ 4.77 µg/mL)
IC50 (Vero): 39.5 µM
Selectivity Index [3]: 4.6

COc1ccc(-c2cc(=O)n3nc(C)c(-c4ccc(Cl)cc4)c3[nH]2)cc1
IC50 [1]: 10.9 µM
MIC [2]: 7.6 µM (≈ 2.78 µg/mL)
IC50 (Vero): 16 µM

Brc1cccc(-c2cnn3c(-c4ccccc4)cc(-c4ccccc4)nc23)c1
IC50 [1]: > 200 µM

COCc1cc(=O)n2ncc(-c3ccc(Cl)cc3)c2[nH]1
IC50 [1]: > 200 µM

COc1ccc(-c2c(C(F)(F)F)nn3c(O)cc(-c4ccccc4)nc23)cc1
IC50 [1]: 20.2 µM

Cc1cc(=O)n2nc(C(F)(F)F)c(-c3ccc(Cl)cc3)c2[nH]1
IC50 [1]: 98.4 µM

Cc1cc(=O)n2ncc(-c3ccc(Cl)cc3)c2[nH]1
IC50 [1]: > 200 µM

COc1ccc(-c2cc(=O)n3nc(C)c(-c4ccc(OC)cc4)c3[nH]2)cc1
IC50 [1]: 42.4 µM
MIC [2]: 61.8 µM (≈ 22.3 µg/mL)
IC50 (Vero): 80.9 µM
Selectivity Index [3]: 2.1

Cc1nn2c(=O)cc(-c3ccc4ccccc4c3)[nH]c2c1-c1ccccc1
IC50 [1]: 19.5 µM

COc1ccc(-c2c(C)nn3c(=O)cc(-c4ccccc4)[nH]c23)cc1
IC50 [1]: 90.7 µM

Cc1cc(=O)n2nc(C(F)(F)F)c(-c3ccc(Br)cc3)c2[nH]1
IC50 [1]: > 200 µM

Cc1nn2c(=O)cc(-c3ccccc3)[nH]c2c1-c1ccccc1
IC50 [1]: 30.6 µM
